The record followed here is patent publication US10487313B2, “Efficient induction of definitive endoderm from pluripotent stem cells” (Novo Nordisk A/S, priority 2011, dated 2019).

The assay concerns hES cells (SA121) in mTeSR culture system. Briefly: Immunostainings and OCT4/SOX17+ cell quantification in the mTeSR system. The note with it: Chir 7 μM or D'Amour. The assay is classed as cell-based, human. The protocol:
hES cells (SA121) were cluster passaged from feeders (MEFs) to Matrigel (BD Biosciences) in mTeSR1 media ([…]) and passaged further with Dispase (BD Biosciences) according to the culture system protocol. DE was initiated once clusters started to touch each other Confluent cultures were washed once in RPMI1640 (Invitrogen) before 24 hour pre-treatment with 0,5-7μM CHIR99021 (Stemgent) in RPMI. Control cells were left untreated in RPMI and D'Amour cells were either left in RPMI or treated with AA (Peprotech)+Wnt3a (R&D Systems) without pre-treatment depending on experimental setup. After 24 hours, pretreated and control cells were washed once with RPMI before adding 100 ng/ml AA in RPMI. D'Amour cells were also treated with 100 ng/ml AA but with 0,2% FBS instead of B27. 24 h later, 2% B27 (Invitrogen) was added to the AA media for 2-3 d. Control cells were treated with B27 to prevent cell death and D'Amour cells with 2% FBS according to published protocol. Media was changed every day. Cells were washed in PBS+/+ and fixed in 4% formaldehyde for 30 min (10% formaline, VWR). The cells were then washed again three times in PBS and left in PBS (4° C.) until staining. Fixed cells were washed with PBS once, then permeabilized with 0.5% Triton X-100 in PBS for 6 min, washed in PBS and blocked with TNB buffer (0.1 M Tris-HCL pH 7.5, 0.15 M NaCl, 0.5% Blocking Reagent (Perkin Elmer)) for 30 min. Primary antibodies (goat-anti-SOX17 (AF1924, RnD Systems); goat-anti-Brachyury (AF2085, RnD Systems); mouse-anti-OCT4 (sc5279, SantaCruz Biotechnology); goat-anti-PDX1 (AB47383, Abcam)) were added in 0.1% TritonX-100+PBS for 1 h in RT or 4° C. O/N. After a thorough washing step in PBS, secondary antibodies were added together with DAPI in 0.1% Triton X-100+PBS for 45 min at RT, washed thoroughly in PBS and left in PBS until photodocumentation.

As to `Cc1c[nH]c(-c2cnc(NCCNc3ccc(C#N)cn3)nc2-c2ccc(Cl)cc2Cl)n1` [CHIR, CHIR99021], the “Oct4+ cell quantification” value is, setting by setting: (D3, Exp ME16b) 6.97; (D3, Exp ME18b) 2.53; (D3, Exp ME21a) 0.95; (D3, Mean of three experiments) 3.5. The “Sox17+ cell quantification” value is listed as 62.62 (D3, Exp ME16b); 82.87 (D3, Exp ME18b); 91.36 (D3, Exp ME21a); 79.0 (D3, Mean of three experiments).
